Assay results reported in patent US5576022A, “Controlled release tacrine drug delivery systems and methods for preparing same” (Warner Lambert Company, priority 1995, dated 1996).

Tests used:
[1] = Single-dose 40-mg pharmacokinetics of CR1, CR3, CR4 and CR5 capsules in healthy elderly volunteers (Example 11, Protocol 970-36); conditions: all of the formulations
Description: Subjects ranged in age form 50 to 74 years (mean=62). None of the subjects were smokers. Serial blood samples were drawn up to 24 hours following each dose and subsequently analyzed for tacrine.
Lag-time (tlag) between dose administration and apparent start of absorption was determined as the sampling time immediately preceding time of the first quantifiable plasma concentration.
Extent of absorption was assessed by evaluation of AUC(O-tldc) values. […] Relative extent of absorption values based on AUC(O-.infin.) values were similar to those based on AUC(O-tldc).

[2] = Single-dose 40-mg pharmacokinetics of CR1, CR2, CR6 and CR7 capsules in healthy elderly volunteers (Example 12); format: in vivo, human; conditions: all of the formulations
Excerpt: The study objective was to determine the relative bioavailability and in vivo release characteristics of a 40-mg tacrine IR capsule (CR1) and three prototype 40-mg tacrine CR capsules (CR2, CR6 and CR7) to aid in the development of a tacrine controlled-release formulation. Sixteen healthy volunteers received a single 40-mg tacrine dose of CR1, CR2, CR6, or CR7 according to a randomized, 4-way crossover design (Table 6). Subjects ranged in age from 59 to 77 years (mean=67). […] Serial blood samples were drawn up to 24 hours following each dose and were subsequently analyzed for tacrine, 1-OH tacrine, 2-OH tacrine, and 4-OH tacrine.

[3] = background; cited from earlier work

Row | Structure (SMILES) | Plasma 1-OH tacrine concentrations relative to tacrine [1] | Plasma 1-OH tacrine concentrations relative to tacrine [2] | absorption and elimination in words [3]
1 | Nc1c2c(nc3ccccc13)CCCC2O (stereo not drawn) [1-OH tacrine] | approximately two times higher | approximately three times higher | –
2 | Cl.Nc1c2c(nc3ccccc13)CCCC2 [tacrine, 1,2,3,4-tetrahydro-9-acridinamine hydrochloride] | – | – | rapidly absorbed and eliminated
